US20240366644A1, “ANTI-INFLAMMATORY APPLICATION OF GINSENOSIDE RD” (priority 2022, published 2024)

What was measured:
[1] = test system: mice infected with COVID-19 Delta virus; experiment: Lung histopathology of mice infected with COVID-19 Delta virus; format: in vivo, hACE2 transgenic C57BL/6 mice; details: number of mice with this degree (four per group); 5 mg/kg gavage once a day, five days
[2] = test system: mice with acute lung injury; experiment: Inflammatory factors (ELISA) in lung tissue and alveolar lavage fluid of mice with LPS acute lung injury; format: in vivo, Balb/c mice; details: 5 mg/kg intraperitoneal 1 h before LPS; 24 h after modeling
Description: Balb/c male mice, weighing 20-22 g, were randomly divided into five groups according to body weights, with eight mice in each group: a blank control group (propylene glycol-0.5% carboxymethylcellulose sodium), a model group (LPS, 15 mg/kg), a ginsenoside Rd low-dose group (10 mg/kg), a ginsenoside Rd high-dose group (20 mg/kg), and a Dexamethasone group (5 mg/kg). Mice in each group were intraperitoneally injected; after 1 h of administration, except for the blank control group, the mice in each group were intratracheally instilled with 20 μg of LPS for modeling; and the blank control group was intratracheally instilled with an equal volume of PBS.
After 1 h of administration, a mouse ALI model was established; each mouse was intraperitoneally injected with sodium pentobarbital at 30 mg/kg, anesthetized and fixed on an operating table dorsally; skin preparation was carried out on the neck; the skin was incised to expose the trachea; 20 μg of LPS was instilled into the trachea using a microglass syringe; and then the mouse was gently rotated head up on the operating table, such that the instilled liquid was evenly distributed in the mouse lungs, and the skin incision was sutured.
After 24 h of modeling, anesthetized mice were intraperitoneally injected with sodium pentobarbital at 30 mg/kg; lung tissues of the mice were taken and rinsed repeatedly in pre-cooled normal saline; the lung tissues were blood-removed, wiped with filter paper, weighed, and added with normal saline according to a ratio of 1:9 (W:V=1 g:9 ml); a tissue homogenate was prepared with a homogenization machine under an ice water bath; and a supernatant of mouse lung tissue homogenate was taken.
The mouse was anesthetized, and the trachea was separated; the whole lung was lavaged with 0.5 ml of pre-cooled normal saline, stayed for 1 min, and slowly pumped back with a syringe, and this process was repeated three times; and BLAF was collected, and centrifuged for 15 min at 4° C. and 1600 rpm/min.
In strict accordance with the operating instructions of an enzyme-linked immunosorbent assay kit (ELISA), the contents of TNF-α, IL-1β, IL-6 and IL-18 in the supernatant of mouse lung tissue homogenate and the BLAF supernatant were detected.

[3] = test system: COVID-19 Delta virus-infected mice; experiment: IL-1β and MCP-1 expression (RT-qPCR) in lung homogenates of COVID-19 Delta virus-infected mice; format: in vivo, hACE2 transgenic C57BL/6 mice; details: mRNA, blank group 1.00; 5 mg/kg gavage; Day 5 of infection
[4] = test system: xylene-induced swelling of mouse ears; experiment: Xylene-induced swelling of mouse ears; format: in vivo, Kunming mice
Description: […] KM mice, weighing 18-22 g, were randomly grouped, with ten mice in each group. The groups include a model group, a positive control group (Indomethacin, 10 mg/kg), a ginsenoside Rd low-dose group (5 mg/kg), and a ginsenoside Rd high-dose group (10 mg/kg). After 30 min of gavage administration of mice (the model group was administrated with the equal volume of 0.5% sodium carboxymethylcellulose by gavage), 0.03 ml of xylene was evenly applied to both sides of the right ear of each mouse in each group to cause inflammations on both sides, and the left ear of the mouse was not applied as a control. After 4 h, the mouse was killed by dislocation of cervical vertebra, the two ears of the mouse were cut off along the auricle, round ear slices of the same size (a diameter of 6 mm) were taken at the same position of the left and right ears and weighed respectively, a mass difference of the two ear slices was used as an ear swelling degree, and a swelling inhibition rate was calculated.

[5] = test system: Chronic Obstructive Pulmonary Disease in Rats; experiment: Serum TNF-α and IL-8 in rats with chronic obstructive pulmonary disease (LPS + smoking); format: in vivo, SD rats; details: 2.5 mg/kg gavage
Description: After adaptive feeding (20-25° C., a humidity of 50-60%) for 1 week, the rats were randomly divided into a blank group, a model group, a positive control group, a ginsenoside Rd high-dose group, and a ginsenoside Rd low-dose group, with ten rats in each group.
Model group: on the Day 1 and Day 14, each rat was intraperitoneally injected with 10% chloral hydrate (300 mg/kg) for anesthesia; the head was fixed in a low position; the glottis was exposed; lipopolysaccharide was quickly injected into the trachea; and the rat was kept upright, and swung left and right for 10-20 s, such that the lipopolysaccharide was evenly distributed in the two lungs. On the Days 2-13, and 15-28, the lungs were smoked in a closed organic glass box for 30 min every day, with 15 cigarettes per day.
Positive control group: the animal was anesthetized, and intratracheally injected with lipopolysaccharide, wherein smoking conditions and time were the same as those of the model group; and after tracheal injection of lipopolysaccharide for two weeks, the animal was administrated with Simvastatin by gavage (2.5 mg/kg), and killed after six weeks, and serum was collected.
In accordance with the instructions, the levels of TNF-α and IL-8 in the serum were detected by enzyme-linked immunosorbent assay. The data was expressed as x±s, p<0.05, which meant that it was statistically significant.

[6] = test system: Chronic Obstructive Pulmonary Disease in Rats; experiment: Lung pathomorphology of rats with chronic obstructive pulmonary disease; format: in vivo, SD rats; details: po, 2.5 mg/kg
[7] = 10 mg/kg gavage 30 min before xylene, 4 h after xylene

For `C[C@@H]1C[C@H]2[C@@H]3CCC4=CC(=O)C=C[C@]4(C)[C@@]3(F)[C@@H](O)C[C@]2(C)[C@@]1(O)C(=O)CO` [Dexamethasone, reference compound], the “Interstitial pneumonia Mild” value [1] was 3, the “Interstitial pneumonia Moderate” value [1] was 1 and the “Interstitial pneumonia Severe” value [1] was 0. The “Pulmonary hemorrhage Mild” value [1] was 3, the “Pulmonary hemorrhage Moderate” value [1] was 1 and the “Pulmonary hemorrhage Severe” value [1] was 0. The “IL-1β in alveolar lavage fluid” value [2] was 58.56 ± 16.24 ng/L, the “IL-1β in lung tissue” value [2] was 48.76 ± 12.76 ng/L and the “IL-6 in alveolar lavage fluid” value [2] was 36.89 ± 6.16 ng/L. The “IL-6 in lung tissue” value [2] was 49.73 ± 16.08 ng/L, the “IL-18 in alveolar lavage fluid” value [2] was 56.38 ± 9.40 ng/L and the “IL-18 in lung tissue” value [2] was 49.06 ± 15.41 ng/L. The “TNF-α in alveolar lavage fluid” value [2] was 222.58 ± 60.91 ng/L, the “TNF-α in lung tissue” value [2] was 58.64 ± 10.65 ng/L and the “IL-1β expression level in lung homogenate” value [3] was 9.26 ± 10.27. The “MCP-1 expression level in lung homogenate” value [3] was 6.27 ± 8.20.

`COc1ccc2c(c1)c(CC(=O)O)c(C)n2C(=O)c1ccc(Cl)cc1` [Indomethacin, reference compound] was tested, and the Ear mass difference [4, 7] was 10.87 ± 0.53 mg, the Swelling degree [4, 7] was 6.48 ± 1.89 (mg) (%) and the inhibition at 10 mg/kg ([4]; Mus musculus, po, ear swelling, 10 mg/kg gavage, read-out: Inhibition rate) was 40.3%.

`CCC(C)(C)C(=O)O[C@H]1C[C@@H](C)C=C2C=C[C@H](C)[C@H](CC[C@@H]3C[C@@H](O)CC(=O)O3)[C@H]21` [Simvastatin, reference compound] was tested, and the IL-8 in serum [5] was 22.65 ± 11.56, the TNF-α in serum [5] was 11.71 ± 13.27 and the “Epithelial cell necrosis Mild” value [6] was 7. The “Epithelial cell necrosis Moderate” value [6] was 3, the “Epithelial cell necrosis Severe” value [6] was 0 and the “Interstitial inflammatory cell infiltration Mild” value [6] was 6. For the same compound, the “Interstitial inflammatory cell infiltration Moderate” value [6] was 4 and the “Interstitial inflammatory cell infiltration Severe” value [6] was 0.
